Assay results reported in PubChem BioAssay AID2060903 (Molecular Pharmacology Branch, DTP, NCI, 2025).

System: 377384-186-R-J1-PDC complex spheroid viability
Assay: Anticancer human tumor 377384-186-R-J1-PDC patient-derived pancreatic carcinoma cell line growth inhibition [RAS]
Details: for IC50: curve of first compound; for viability, T/C: stronger effect = lower value
Description: RAS pathway inhibitors in Combinations in Complex Spheroids
A high-throughput screen of multi-cell type tumor spheroids was designed to identify active combinations of RAS pathway inhibitors and targeted small molecules. Complex spheroids include a stromal component modeled by human endothelial cells (HUVEC) and fibroblasts modeled by human mesenchymal stem cells (MSCs). The concentration ranges selected for each drug and investigational agent were based upon clinically achievable concentrations if the clinical Cmax of the agent was known.
Compounds. The drugs and investigational agents: abemaciclib (NSC768073), cobimetinib (NSC768068), divarasib (GDC6063, NSC841802), docetaxel (NSC628503), GDC-1971 (RLY-1971, NSC841576), gemcitabine (NSC613327), inavolisib (NSC800729), ipatasertib (NSC767898), KB-0742 (NSC834161), MRTX-1133 (NSC836407), osimertinib (NSC779217), RMC-4630 (NSC839698), RMC-6236 (NSC851965), RMC-6291 (NSC852671), Ro-3306 (NSC812927), sapanisertib (NSC764658), SN-38 (NSC673596), staurosporine (NSC755774), SY5609 (NSC837396), and tovorafenib (DAY101, NSC766906), were obtained from the National Cancer Institute (NCI) Developmental Therapeutics Program Chemical Repository. The FDA-approved anticancer drug set is available from the NCI Developmental Therapeutics Program. […] The stock solutions were prepared in dimethyl sulfoxide (DMSO, Sigma-Aldrich, St. Louis, MO, cat. D2650) at 800-fold the tested concentration and stored at -70 degrees C prior to their use. All drugs and investigational agents were tested over a range starting from a high concentration at or near the clinical Cmax and decreasing in half-log increments. If the clinical Cmax for an agent had not been determined, the highest concentration tested was 10 microM.
Cell Culture. All cells were maintained in an incubator at 37 degrees C and 5% CO2 with 95% humidity. The PDC lines were cultured according to standard operating procedures established by the NCI PDMR. All PDCs were thawed and cultured in Matrigel-coated flasks prepared with a working solution of 1X Ham's F-12 nutrient mix, without supplementation (Invitrogen, Waltham, MA, cat. 11765054), 100 U/mL penicillin-streptomycin (Invitrogen, cat. 15140122), and 2.5% Matrigel (Corning Inc., Corning, NY, cat. 354248) for the first three passages. The 362531-283-R-J2-PDC and 782815-120-R-J1-PDC lines were cultured in 6C/Colon 1B media, which includes advanced DMEM/F-12 (Thermo Fisher Scientific, cat. 12634028), 10 mM HEPES (Thermo Fisher Scientific, cat. 15630080), 1X GlutaMAX supplement (Thermo Fisher Scientific, cat. 35050061), 0.1 mg/mL primocin (InvivoGen, San Diego, CA, cat. ant-pm-2), 10% defined fetal bovine serum, heat inactivated (HyClone Laboratories Inc., Logan, UT, cat. SH30070.03HI), 50% L-WRN conditioned media (ATCC, cat. CRL-3276), 1.25 mM N-Acetyl-L-cysteine (Sigma-Aldrich, cat. A9165), 10 mM nicotinamide (Sigma-Aldrich, cat. N0636), 1X B-27 supplement (Thermo Fisher Scientific, cat. 17504044), 1X N-2 supplement (Thermo Fisher Scientific, cat. 17502048), 50 ng/mL human EGF (Thermo Fisher Scientific, cat. PHG0311), and 10 microM Y-27632 dihydrochloride (Tocris Bioscience, cat. 1254). The K12877-001-R-J1-PDC line was cultured in 6I media, which includes all 6C/Colon 1B media plus 10 ng/mL human FGF-10 (PeproTech, cat. 100-26), 1 ng/mL human FGF-2 (PeproTech, cat. 100-18B), 1 µM prostaglandin E2 (Tocris Bioscience, cat. 2296), […] hydrocortisone (Sigma-Aldrich, cat. H4001), and […] bovine insulin (Sigma-Aldrich, cat. I6634). The K86415-001-R-J1-PDC line was cultured in 6D media, which includes all 6C/Colon 1B media components minus the L-WRN conditioned media. The 485176-168-R4-J1-PDC was cultured in PANC media, which includes all 6C/Colon 1B media plus 100 ng/mL human FGF-10 (PeproTech, cat. 100-26), 500 nM SB-431542 (Selleckchem, cat. S1067), and 10 nM gastrin (Tocris Bioscience, cat. 3006). […]
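Also: spheroids exposed to compounds for seven days before readout.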

Compound: CC1(C)CCC(Nc2ncc(C(F)(F)F)c(-c3c[nH]c4c(P(C)(C)=O)c(C#N)ccc34)n2)CN1 (centres undefined) + CCn1c(-c2cc(N3CCN(C)CC3)cnc2C(C)OC)c2c3cc(ccc31)-c1csc(n1)CC(NC(=O)C1CC1C)C(=O)N1CCCC(N1)C(=O)OCC(C)(C)C2
- IC50 (second compound 0.000949 µM): < 0.000949 µM
- IC50 (second compound 0.003 µM): < 0.000949 µM
- IC50 (second compound 0.00949 µM): < 0.000949 µM
- IC50 (second compound 0.03 µM): < 0.000949 µM
- IC50 (second compound 0.0949 µM): < 0.000949 µM
- IC50 (second compound 0.3 µM): < 0.000949 µM
- viability, T/C (second compound 0.000949 µM, first compound 0.000949 µM): 42.6%
- viability, T/C (second compound 0.000949 µM, first compound 0.003 µM): 37.1%
- viability, T/C (second compound 0.000949 µM, first compound 0.00949 µM): 22.9%
- viability, T/C (second compound 0.000949 µM, first compound 0.03 µM): 16.4%
- viability, T/C (second compound 0.000949 µM, first compound 0.0949 µM): 14.9%
- viability, T/C (second compound 0.000949 µM, first compound 0.3 µM): 14%
- viability, T/C (second compound 0.003 µM, first compound 0.000949 µM): 21.9%
- viability, T/C (second compound 0.003 µM, first compound 0.003 µM): 16.8%
- viability, T/C (second compound 0.003 µM, first compound 0.00949 µM): 10.4%
- viability, T/C (second compound 0.003 µM, first compound 0.03 µM): 9.92%
- viability, T/C (second compound 0.003 µM, first compound 0.0949 µM): 11.7%
- viability, T/C (second compound 0.003 µM, first compound 0.3 µM): 8.33%
- viability, T/C (second compound 0.00949 µM, first compound 0.000949 µM): 6.47%
- viability, T/C (second compound 0.00949 µM, first compound 0.003 µM): 5.75%
- viability, T/C (second compound 0.00949 µM, first compound 0.00949 µM): 5.48%
- viability, T/C (second compound 0.00949 µM, first compound 0.03 µM): 5.23%
- viability, T/C (second compound 0.00949 µM, first compound 0.0949 µM): 5.63%
- viability, T/C (second compound 0.00949 µM, first compound 0.3 µM): 5.21%
- viability, T/C (second compound 0.03 µM, first compound 0.000949 µM): 2.48%
- viability, T/C (second compound 0.03 µM, first compound 0.003 µM): 2.69%
- viability, T/C (second compound 0.03 µM, first compound 0.00949 µM): 2.99%
- viability, T/C (second compound 0.03 µM, first compound 0.03 µM): 3.34%
- viability, T/C (second compound 0.03 µM, first compound 0.0949 µM): 2.03%
- viability, T/C (second compound 0.03 µM, first compound 0.3 µM): 1.64%
- viability, T/C (second compound 0.0949 µM, first compound 0.000949 µM): 2.02%
- viability, T/C (second compound 0.0949 µM, first compound 0.003 µM): 2.11%
- viability, T/C (second compound 0.0949 µM, first compound 0.00949 µM): 1.57%
- viability, T/C (second compound 0.0949 µM, first compound 0.03 µM): 1.95%
- viability, T/C (second compound 0.0949 µM, first compound 0.0949 µM): 1.46%
- viability, T/C (second compound 0.0949 µM, first compound 0.3 µM): 1.6%
- viability, T/C (second compound 0.3 µM, first compound 0.000949 µM): 1.8%
- viability, T/C (second compound 0.3 µM, first compound 0.003 µM): 1.64%
- viability, T/C (second compound 0.3 µM, first compound 0.00949 µM): 1.69%
- viability, T/C (second compound 0.3 µM, first compound 0.03 µM): 2.15%
- viability, T/C (second compound 0.3 µM, first compound 0.0949 µM): 1.77%
- viability, T/C (second compound 0.3 µM, first compound 0.3 µM): 1.54%

Compound: NC1c2ccccc2OC12CCN(c1cnc3c(N4CCCc5ncccc54)n[nH]c3n1)CC2 (centres undefined) + CCn1c(-c2cc(N3CCN(C)CC3)cnc2C(C)OC)c2c3cc(ccc31)-c1csc(n1)CC(NC(=O)C1CC1C)C(=O)N1CCCC(N1)C(=O)OCC(C)(C)C2
- IC50 (second compound 0.000949 µM): < 0.0316 µM
- IC50 (second compound 0.003 µM): < 0.0316 µM
- IC50 (second compound 0.00949 µM): < 0.0316 µM
- IC50 (second compound 0.03 µM): < 0.0316 µM
- IC50 (second compound 0.0949 µM): < 0.0316 µM
- IC50 (second compound 0.3 µM): < 0.0316 µM
- viability, T/C (second compound 0.000949 µM, first compound 0.0316 µM): 5.69%
- viability, T/C (second compound 0.000949 µM, first compound 0.1 µM): 3.23%
- viability, T/C (second compound 0.000949 µM, first compound 0.316 µM): 1.88%
- viability, T/C (second compound 0.000949 µM, first compound 1 µM): 1.71%
- viability, T/C (second compound 0.000949 µM, first compound 3.16 µM): 1.35%
- viability, T/C (second compound 0.000949 µM, first compound 10 µM): 0.78%
- viability, T/C (second compound 0.003 µM, first compound 0.0316 µM): 2.74%
- viability, T/C (second compound 0.003 µM, first compound 0.1 µM): 1.37%
- viability, T/C (second compound 0.003 µM, first compound 0.316 µM): 1.06%
- viability, T/C (second compound 0.003 µM, first compound 1 µM): 0.67%
- viability, T/C (second compound 0.003 µM, first compound 3.16 µM): 0.28%
- viability, T/C (second compound 0.003 µM, first compound 10 µM): 0.2%
- viability, T/C (second compound 0.00949 µM, first compound 0.0316 µM): 1.78%
- viability, T/C (second compound 0.00949 µM, first compound 0.1 µM): 1.22%
- viability, T/C (second compound 0.00949 µM, first compound 0.316 µM): 0.77%
- viability, T/C (second compound 0.00949 µM, first compound 1 µM): 0.41%
- viability, T/C (second compound 0.00949 µM, first compound 3.16 µM): 1.43%
- viability, T/C (second compound 0.00949 µM, first compound 10 µM): 0.08%
- viability, T/C (second compound 0.03 µM, first compound 0.0316 µM): 2.14%
- viability, T/C (second compound 0.03 µM, first compound 0.1 µM): 1.39%
- viability, T/C (second compound 0.03 µM, first compound 0.316 µM): 1%
- viability, T/C (second compound 0.03 µM, first compound 1 µM): 0.36%
- viability, T/C (second compound 0.03 µM, first compound 3.16 µM): 0.18%
- viability, T/C (second compound 0.03 µM, first compound 10 µM): 0.1%
- viability, T/C (second compound 0.0949 µM, first compound 0.0316 µM): 1.61%
- viability, T/C (second compound 0.0949 µM, first compound 0.1 µM): 1.57%
- viability, T/C (second compound 0.0949 µM, first compound 0.316 µM): 0.67%
- viability, T/C (second compound 0.0949 µM, first compound 1 µM): 0.17%
- viability, T/C (second compound 0.0949 µM, first compound 3.16 µM): 0.13%
- viability, T/C (second compound 0.0949 µM, first compound 10 µM): 0.29%
- viability, T/C (second compound 0.3 µM, first compound 0.0316 µM): 1.41%
- viability, T/C (second compound 0.3 µM, first compound 0.1 µM): 1.04%
- viability, T/C (second compound 0.3 µM, first compound 0.316 µM): 0.5%
- viability, T/C (second compound 0.3 µM, first compound 1 µM): 0.27%
- viability, T/C (second compound 0.3 µM, first compound 3.16 µM): 0.14%
- viability, T/C (second compound 0.3 µM, first compound 10 µM): 0.1%
